Measured values from ChEMBL document CHEMBL5344434.
pEC50: −log10 of the molar value.

Key:
[1] = Selectivity index, ratio for cytotoxicity against human HepG2 cells after 48 hrs to antiviral activity against HEV Kernow-C1 infected in gaussia luciferase transfected HepG2 cells pre-infected with virus for 4 hrs followed by compound addition and measured after 48 hrs post infection; format: toxicity, cell-based; conditions: read-out: Selectivity Index
[2] = Selectivity index, ratio for cytotoxicity against human HepG2 cells after 24 hrs to antiviral activity against HEV Kernow-C1 infected in gaussia luciferase transfected HepG2 cells pre-infected with virus for 4 hrs followed by compound addition and measured after 24 hrs post infection; format: toxicity, cell-based; conditions: read-out: Selectivity Index
[3] = Cytotoxicity against human HepG2 cells after 24 hrs by MTT assay; format: toxicity, cell-based
Hepatitis E virus [4] = assay: Antiviral activity against HEV Kernow-C1 infected in gaussia luciferase transfected HepG2 cells assessed as reduction in viral replication pre-infected with virus for 4 hrs followed by compound addition and measured after 48 hrs post infection by luminometer analysis; format: functional, organism-based; conditions: for EC90: time 44 hrs
[5] = Cytotoxicity against human HepG2 cells after 48 hrs by MTT assay; format: toxicity, cell-based
Hepatitis E virus [6] = assay: Antiviral activity against HEV Kernow-C1 infected in gaussia luciferase transfected HepG2 cells assessed as reduction in viral replication pre-infected with virus for 4 hrs followed by compound addition and measured after 24 hrs post infection by luminometer analysis; format: functional, organism-based; conditions: for EC90: time 20 hrs
[7] = Selectivity index, ratio for cytotoxicity against african green monkey Vero E6 cells after 48 hrs to antiviral activity against SARS-CoV-2 2019-nCoV Muc-IMB-1 infected in Vero E6 cells pre-infected with virus for 1 hr followed by compound addition and measured after 48 hrs post infection; format: toxicity, cell-based, Vero C1008; conditions: read-out: Selectivity Index
[8] = Selectivity index, ratio for cytotoxicity against human Huh-7 cells after 48 hrs to antiviral activity against Chikungunya virus ECSA infected in Huh-7 cells expressing GFP pre-infected with virus for 1 hr followed by compound addition and measured after 48 hrs post infection; format: toxicity, cell-based; conditions: read-out: Selectivity Index
[9] = Selectivity index, ratio for cytotoxicity against african green monkey Vero E6 cells after 24 hrs to antiviral activity against SARS-CoV-2 2019-nCoV Muc-IMB-1 infected in Vero E6 cells pre-infected with virus for 1 hr followed by compound addition and measured after 24 hrs post infection; format: toxicity, cell-based, Vero C1008; conditions: read-out: Selectivity Index
[10] = Selectivity index, ratio for cytotoxicity against human Huh-7 cells after 24 hrs to antiviral activity against Chikungunya virus ECSA infected in Huh-7 cells expressing GFP pre-infected with virus for 1 hr followed by compound addition and measured after 24 hrs post infection; format: toxicity, cell-based; conditions: read-out: Selectivity Index
[11] = Selectivity index, ratio for cytotoxicity against african green monkey Vero E6 cells after 48 hrs to antiviral activity against RVFV MP-12 infected in Vero E6 cells pre-infected with virus for 1 hr followed by compound addition and measured after 48 hrs post infection; format: toxicity, cell-based, Vero C1008; conditions: read-out: Selectivity Index
[12] = Selectivity index, ratio for cytotoxicity against african green monkey Vero E6 cells after 24 hrs to antiviral activity against RVFV MP-12 infected in Vero E6 cells pre-infected with virus for 1 hr followed by compound addition and measured after 24 hrs post infection; format: toxicity, cell-based, Vero C1008; conditions: read-out: Selectivity Index
Vero C1008 = assay: Cytotoxicity against african green monkey Vero E6 cells after 48 hrs by MTT assay; format: toxicity, cell-based; conditions: chlorocebus sabaeus, vero c1008, 48 h

Compound | selectivity ratio at 48 h [1] | selectivity ratio at 24 h [2] | other results
COC(=O)[C@H]1[C@@H](O)[C@@]2(O)c3c(OC)cc(OC)cc3O[C@@]2(c2ccc(Br)cc2)[C@@H]1c1ccccc1 (racemic) | 3.2 | 74.1 | –
CONC(=O)[C@H]1[C@@H](O)[C@@]2(O)c3c(OC)cc(OC)cc3O[C@@]2(c2ccc(OC)cc2)[C@@H]1c1ccccc1 (racemic) | 3.8 | 35.4 | CC50 at 24 h [3]: 188 nM; pEC50 (Hepatitis E virus [4]): 8.43; EC90 (Hepatitis E virus [4]): 27.3 nM; CC50 at 48 h [5]: 14.3 nM; pEC50 (Hepatitis E virus [6]): 8.21; EC90 (Hepatitis E virus [6]): 29 nM
COC(=O)[C@H]1[C@@H](O)[C@@]2(O)c3c(OC)cc(Cl)cc3O[C@@]2(c2ccc(OC)cc2)[C@@H]1c1ccccc1 (racemic) | 7.5 | 79.3 | –
COC(=O)[C@H]1[C@@H](O)[C@@]2(O)c3c(OC)cc(OC)cc3O[C@@]2(c2ccc(Cl)cc2)[C@@H]1c1ccccc1 (racemic) | 2.2 | 26.4 | –
CONC(=O)[C@H]1[C@@H](O)[C@@]2(O)c3c(OC)cc(OC)cc3O[C@@]2(c2ccc(F)cc2)[C@@H]1c1ccccc1 (racemic) | 3.7 | 13.5 | CC50 at 24 h [3]: 666 nM; pEC50 (Hepatitis E virus [4]): 7.28; EC90 (Hepatitis E virus [4]): 338 nM; CC50 at 48 h [5]: 143 nM; pEC50 (Hepatitis E virus [6]): 7.27; EC90 (Hepatitis E virus [6]): 670 nM
CONC(=O)[C@H]1[C@@H](O)[C@@]2(O)c3c(F)cc(OC)cc3O[C@@]2(c2ccc(OC)cc2)[C@@H]1c1ccccc1 (racemic) | 2.5 | 28.5 | –
COC(=O)[C@H]1[C@@H](O)[C@@]2(O)c3c(F)cc(F)cc3O[C@@]2(c2ccc(OC)cc2)[C@@H]1c1ccccc1 (racemic) | 1 | 1 | –
COC(=O)[C@H]1[C@@H](O)[C@@]2(O)c3c(Br)cc(OC)cc3O[C@@]2(c2ccc(OC)cc2)[C@@H]1c1ccccc1 (racemic) | 2.5 | 9.7 | –
COC(=O)[C@H]1[C@@H](O)[C@@]2(O)c3c(Cl)cc(OC)cc3O[C@@]2(c2ccc(OC)cc2)[C@@H]1c1ccccc1 (racemic) | 1.8 | 9.3 | –
COCOc1cc(F)c2c(c1)O[C@@]1(c3ccc(Br)cc3)[C@H](c3ccccc3)[C@@H](C(=O)OC)[C@@H](O)[C@@]21O (racemic) | 2.1 | 8.1 | –
COC(=O)[C@H]1[C@@H](O)[C@@]2(O)c3c(Cl)cc(Cl)cc3O[C@@]2(c2ccc(Br)cc2)[C@@H]1c1ccccc1 (racemic) | 3.7 | 13.4 | –
COC(=O)[C@H]1[C@@H](O)[C@@]2(O)c3c(F)cc(OC)cc3O[C@@]2(c2ccc(OC)cc2)[C@@H]1c1ccccc1 (racemic) | 2.5 | 30.4 | –
COC(=O)[C@H]1[C@@H](O)[C@@]2(O)c3c(OC)cc(Br)cc3O[C@@]2(c2ccc(OC)cc2)[C@@H]1c1ccccc1 (racemic) | 11 | 160 | selectivity ratio at 48 h [7]: 20.9; selectivity ratio at 48 h [8]: 428; selectivity ratio at 24 h [9]: 29.5; selectivity ratio at 24 h [10]: 637; selectivity ratio at 48 h [11]: 23.1; selectivity ratio at 24 h [12]: 38.4
COC(=O)[C@H]1[C@@H](O)[C@@]2(O)c3c(Cl)cc(Br)cc3O[C@@]2(c2ccc(OC)cc2)[C@@H]1c1ccccc1 (racemic) | 5.1 | 122 | –
COC(=O)[C@H]1[C@@H](O)[C@@]2(O)c3c(OC)cc(F)cc3O[C@@]2(c2ccc(OC)cc2)[C@@H]1c1ccccc1 (racemic) | 1.3 | 1 | –
COC(=O)[C@H]1[C@@H](O)[C@@]2(O)c3c(Cl)cc(Cl)cc3O[C@@]2(c2ccc(OC)cc2)[C@@H]1c1ccccc1 (racemic) | 8.2 | 31.7 | selectivity ratio at 48 h [7]: 5.7; selectivity ratio at 48 h [8]: 44.9; selectivity ratio at 24 h [9]: 9; selectivity ratio at 24 h [10]: 57.5; selectivity ratio at 48 h [11]: 7; selectivity ratio at 24 h [12]: 9.8
COCOc1cc(F)c2c(c1)O[C@@]1(c3ccc(OC)cc3)[C@H](c3ccccc3)[C@@H](C(=O)OC)[C@@H](O)[C@@]21O (racemic) | 1.8 | 4.6 | –
CONC(=O)[C@H]1[C@@H](O)[C@@]2(O)c3c(Br)cc(Cl)cc3O[C@@]2(c2ccc(OC)cc2)[C@@H]1c1ccccc1 (racemic) | 4.6 | 163 | CC50 at 24 h [3]: 464 nM; pEC50 (Hepatitis E virus [4]): 8.26; EC90 (Hepatitis E virus [4]): 62.9 nM; CC50 at 48 h [5]: 26.3 nM; pEC50 (Hepatitis E virus [6]): 8.39; EC90 (Hepatitis E virus [6]): 131 nM
CONC(=O)[C@H]1[C@@H](O)[C@@]2(O)c3c(Cl)cc(Cl)cc3O[C@@]2(c2ccc(OC)cc2)[C@@H]1c1ccccc1 (racemic) | 3.3 | 65.9 | –
COC(=O)[C@H]1[C@@H](O)[C@@]2(O)c3c(Br)cc(Br)cc3O[C@@]2(c2ccc(OC)cc2)[C@@H]1c1ccccc1 (racemic) | 2.6 | 22.1 | –
COC(=O)[C@H]1[C@@H](O)[C@@]2(O)c3c(OC)cc(OC)cc3O[C@@]2(c2ccc(F)cc2)[C@@H]1c1ccccc1 (racemic) | 1.4 | 10.9 | –
CONC(=O)[C@H]1[C@@H](O)[C@@]2(O)c3c(OC)cc(Br)cc3O[C@@]2(c2ccc(OC)cc2)[C@@H]1c1ccccc1 (racemic) | 7.4 | 52800 | –
COc1cc(OC)c2c(c1)O[C@@]1(c3ccc(F)cc3)[C@H](c3ccccc3)[C@@H](C(=O)N(C)C)[C@@H](O)[C@@]21O (racemic) | 1.5 | 4.4 | –
CONC(=O)[C@H]1[C@@H](O)[C@@]2(O)c3c(OC)cc(OC)cc3O[C@@]2(c2ccc(Cl)cc2)[C@@H]1c1ccccc1 (racemic) | 4.2 | 198 | CC50 at 24 h [3]: 529 nM; pEC50 (Hepatitis E virus [4]): 8.64; EC90 (Hepatitis E virus [4]): 18.2 nM; CC50 at 48 h [5]: 10 nM; pEC50 (Hepatitis E virus [6]): 8.55; EC90 (Hepatitis E virus [6]): 23.8 nM
COC(=O)[C@H]1[C@@H](O)[C@@]2(O)c3c(Br)cc(Cl)cc3O[C@@]2(c2ccc(OC)cc2)[C@@H]1c1ccccc1 (racemic) | 2.8 | 19 | –
CONC(=O)[C@H]1[C@@H](O)[C@@]2(O)c3c(Cl)cc(Br)cc3O[C@@]2(c2ccc(OC)cc2)[C@@H]1c1ccccc1 (racemic) | 5.7 | 123 | selectivity ratio at 48 h [7]: 0.9; selectivity ratio at 48 h [8]: 317; selectivity ratio at 24 h [9]: 19.5; CC50 (Vero C1008): 176 nM; selectivity ratio at 24 h [10]: 402; selectivity ratio at 48 h [11]: 1.7; selectivity ratio at 24 h [12]: 23.8
COc1ccc([C@@]23Oc4cc(OC)cc(F)c4[C@]2(O)[C@H](O)[C@H](C(=O)N(C)C)[C@H]3c2ccccc2)cc1 (racemic) | 2.7 | 14.3 | –
COc1cc(OC)c2c(c1)O[C@@]1(c3ccc(Cl)cc3)[C@H](c3ccccc3)[C@@H](C(=O)N(C)C)[C@@H](O)[C@@]21O (racemic) | 2.7 | 50.8 | –
COc1ccc([C@@]23Oc4cc(OC)cc(OC)c4[C@]2(O)[C@H](O)[C@H](C(=O)N(C)C)[C@H]3c2ccccc2)cc1 (racemic) [ROCAGLAMIDE] | 2.1 | 19.7 | –
COC(=O)[C@H]1[C@@H](O)[C@@]2(O)c3c(OC)cc(O[C@@H]4O[C@@H]([C@H](O)CO)CO[C@H]4OC)cc3O[C@@]2(c2ccc(OC)cc2)[C@@H]1c1ccccc1 [SILVESTROL] | 6.1 | 76.7 | –
